Earlier results in patent US6911441B2, “Prolonged release pharmaceutical composition” (Akzo Nobel N.V., priority 2002, dated 2005).
≈ marks a conversion by molar mass, not a printed value.

Test system: Mannheimia haemolytica

For `CO/N=C(\C(=O)N[C@@H]1C(=O)N2C(C(=O)[O-])=C(C[n+]3cccc4c3CCCC4)CS[C@H]12)c1csc(N)n1` [Cefquinome], the MIC90 is given as 0.25 µg/mL (≈ 0.473 µM).
